Measured values reported in patent US20230322753A1, “HETEROARYL DERIVATIVE, METHOD FOR PREPARATION THEREOF, AND PHARMACEUTICAL COMPOSITION COMPRISING SAME AS ACTIVE INGREDIENT” (VORONOI INC., priority 2020, published 2023).

The compounds below were run on Ba/F3 cells expressing EGFR Exon20 ins NPH (assay: Ba/F3 proliferation suppression activity, cells expressing EGFR Exon20 ins NPH). Conditions: Mus musculus, BaF3, 72 hours, CellTiter-Glo.
Format: cell-based
Procedure: A following experiment was carried out to evaluate the suppression activity of the compounds according to the present invention against the proliferation of Ba/F3 which expresses EGFR mutations.
For the Ba/F3 cells, a RPMI-1640 medium containing 10% FBS and 5 ng/ml IL-3 (R&D Systems) was used. The transduced Ba/F3 cells were cultured in a medium, which is same as the above medium, but 1 ug/ml puromycin (Invitrogen) was additionally added to.
24 hours before the treatment of the cells with the compounds, 3000 to 5000 cells were distributed into each well of a white clear bottom 96 well plate (Corning). The compounds were diluted in a dimethyl sulfoxide (e.g. dilution ratio of 3:1 and total 12 concentrations) and then injected by 0.5 ul respectively, such that a final concentration amounted to 0.3 nM to 50 uM. 72 hours after the treatment with the compounds, the measurement of live cells was made in such way that these cells were stored for 10 minutes at a room temperature using a CellTiter-Glo luminescent cell-viability reagent (Promega) and then their luminescence intensities were measured using a reader (i.e. Synergy Neo, Biotek). Each test was repeated three times.
resulting values were calculated as a cell growth ratio (%) compared to a control. Then, the graphs were drawn and the […] values were calculated by using a program, GraphPad Prism version 5.0.

| SMILES | GI50 |
| --- | --- |
| C=CC(=O)Nc1cc(Nc2cc(N3OCC[C@@H]3c3cc(F)cc(C(F)(F)F)c3)ncn2)c(OC)cc1N1CCN(C2CC2)CC1 [Compound 2] | 50 to 500 nM |
| C=CC(=O)Nc1cc(Nc2cc(N3OCC[C@@H]3c3cc(F)cc(C(F)(F)F)c3)ncn2)c(OC)cc1N1CCN(C)CC1 [Compound 3] | 50 to 500 nM |
| C=CC(=O)Nc1cc(Nc2cc(N3OCC[C@@H]3c3cc(F)cc(C(F)(F)F)c3)ncn2)c(OC)cc1N1CCN(CC)CC1 [Compound 4] | < 50 nM |
| C=CC(=O)Nc1cc(Nc2cc(N3OCC[C@@H]3c3cc(F)cc(C(F)(F)F)c3)ncn2)c(OC)cc1N1CCN(C2CC2)[C@H](C)C1 [Compound 5] | 50 to 500 nM |
| C=CC(=O)Nc1cc(Nc2cc(N3OCC[C@@H]3c3cc(F)cc(C(F)(F)F)c3)ncn2)c(OC)cc1N1CCN(C2CC2)[C@@H](C)C1 [Compound 6] | 50 to 500 nM |
| C=CC(=O)Nc1cc(Nc2cc(N3OCC[C@@H]3c3cccc(C(F)(F)F)c3)ncn2)c(OC)cc1N1CCN(C)[C@@H](C)C1 [Compound 7] | < 50 nM |
| C=CC(=O)Nc1cc(Nc2cc(N3OCC[C@@H]3c3cccc(C(F)(F)F)c3)ncn2)c(OC)cc1N1CCN(C)[C@H](C)C1 [Compound 8] | < 50 nM |
| C=CC(=O)Nc1cc(Nc2cc(N3OCC[C@@H]3c3cccc(C(F)(F)F)c3)ncn2)c(OC)cc1N1CCN(C2CC2)[C@H](C)C1 [Compound 9] | 50 to 500 nM |
| C=CC(=O)Nc1cc(Nc2cc(N3OCC[C@@H]3c3cccc(C(F)(F)F)c3)ncn2)c(OC)cc1N1CCN(C2CC2)[C@@H](C)C1 [Compound 10] | 50 to 500 nM |
| C=CC(=O)Nc1cc(Nc2cc(N3OCC[C@@H]3c3cc(F)cc(C(F)(F)F)c3)ncn2)c(OC)cc1N1CCN(C)[C@H](C)C1 [Compound 11] | 50 to 500 nM |
| C=CC(=O)Nc1cc(Nc2cc(N3OCC[C@@H]3c3cc(F)cc(C(F)(F)F)c3)ncn2)c(OC)cc1N1CCN(C)[C@@H](C)C1 [Compound 12] | 50 to 500 nM |
| C=CC(=O)Nc1cc(Nc2cc(N3OCC[C@@H]3c3cccc(C(F)(F)F)c3)ncn2)c(OC)cc1N1CCC(N2CCC(N3CCN(C4CC4)CC3)CC2)CC1 [Compound 13] | 50 to 500 nM |
| C=CC(=O)Nc1cc(Nc2cc(N3OCC[C@@H]3c3cccc(C(F)(F)F)c3)ncn2)c(OC)cc1N1CCC(N2CCC(N3CCN(C)CC3)CC2)CC1 [Compound 14] | 50 to 500 nM |
| C=CC(=O)Nc1cc(Nc2cc(N3OCC[C@@H]3c3cc(F)cc(C(F)(F)F)c3)ncn2)c(OC)cc1N1CCC(N(C)C)CC1 [Compound 15] | 50 to 500 nM |
| C=CC(=O)Nc1cc(Nc2cc(N3OCC[C@@H]3c3cc(F)cc(C(F)(F)F)c3)ncn2)c(OC)cc1N1CCC(N(CC)CC)CC1 [Compound 16] | < 50 nM |
| C=CC(=O)Nc1cc(Nc2cc(N3OCC[C@@H]3c3cc(F)cc(C(F)(F)F)c3)ncn2)c(OC)cc1N(C)CCN(C)C [Compound 17] | < 50 nM |
| C=CC(=O)Nc1cc(Nc2cc(N3OCC[C@@H]3c3cc(F)cc(C(F)(F)F)c3)ncn2)c(OC)cc1N1CCC(N2CCCC2)CC1 [Compound 18] | < 50 nM |
| C=CC(=O)Nc1cc(Nc2cc(N3OCC[C@@H]3c3cc(F)cc(C(F)(F)F)c3)ncn2)c(OC)cc1N1CCC(N2CCC2)CC1 [Compound 19] | < 50 nM |
| C=CC(=O)Nc1cc(Nc2cc(N3OCC[C@@H]3c3cccc(C(F)(F)F)c3)ncn2)c(OC)cc1N1CCC(N(CC)CC)CC1 [Compound 20] | < 50 nM |
| C=CC(=O)Nc1cc(Nc2cc(N3OCC[C@@H]3c3cccc(C(F)(F)F)c3)ncn2)c(OC)cc1N1CCC(N2CCC2)CC1 [Compound 21] | < 50 nM |
| C=CC(=O)Nc1cc(Nc2cc(N3OCC[C@@H]3c3cccc(C(F)(F)F)c3)ncn2)c(OC)cc1N1CCC(N2CCCC2)CC1 [Compound 22] | < 50 nM |
| C=CC(=O)Nc1cc(Nc2cc(N3OCC[C@@H]3c3cccc(C(F)(F)F)c3)ncn2)c(OC)cc1N1CCN(C2COC2)CC1 [Compound 23] | < 50 nM |
| C=CCN1CCN(c2cc(OC)c(Nc3cc(N4OCC[C@@H]4c4cccc(C(F)(F)F)c4)ncn3)cc2NC(=O)C=C)CC1 [Compound 24] | < 50 nM |
| C=CC(=O)Nc1cc(Nc2cc(N3OCC[C@@H]3c3cccc(C(F)(F)F)c3)ncn2)c(OC)cc1N1CCN(CC2CC2)CC1 [Compound 25] | < 50 nM |
| C=CC(=O)Nc1cc(Nc2cc(N3OCC[C@@H]3c3cccc(C(F)(F)F)c3)ncn2)c(OC)cc1N1CCCN(C)CC1 [Compound 26] | < 50 nM |
| C=CC(=O)Nc1cc(Nc2cc(N3OCC[C@@H]3c3cccc(C(F)(F)F)c3)ncn2)c(OC)cc1N1CCOCC1 [Compound 27] | < 50 nM |
| C=CC(=O)Nc1cc(Nc2cc(N3OCC[C@@H]3c3cccc(C(F)(F)F)c3)ncn2)c(OC)cc1N1C[C@H]2C[C@@H]1CO2 [Compound 28] | 50 to 500 nM |
| C=CC(=O)Nc1cc(Nc2cc(N3OCC[C@@H]3c3cccc(C(F)(F)F)c3)ncn2)c(OC)cc1N1CCCN(C2CC2)CC1 [Compound 29] | 50 to 500 nM |

| SMILES | GI50 |
| --- | --- |
| C=CC(=O)Nc1cc(Nc2cc(N3OCC[C@@H]3c3cccc(C(F)(F)F)c3)ncn2)c(OC)cc1N1C[C@@H]2C[C@H]1CO2 [Compound 30] | 50 to 500 nM |
| C=CC(=O)Nc1cc(Nc2cc(N3OCC[C@@H]3c3cccc(C(F)(F)F)c3)ncn2)ccc1N1CCN(C)CC1 [Compound 31] | 50 to 500 nM |
| C=CC(=O)Nc1cc(Nc2cc(N3OCC[C@@H]3c3ccc(Cl)c(C(F)(F)F)c3)ncn2)c(OC)cc1N1CCN(C)CC1 [Compound 32] | 50 to 500 nM |
| C=CC(=O)Nc1cc(Nc2cc(N3OCC[C@@H]3c3ccc(Cl)c(C(F)(F)F)c3)ncn2)c(OC)cc1N1CCN(CC)CC1 [Compound 33] | 50 to 500 nM |
| C=CC(=O)Nc1cc(Nc2cc(N3OCC[C@@H]3c3ccc(Cl)c(C(F)(F)F)c3)ncn2)c(OC)cc1N1CCC(N2CCN(C3CC3)CC2)CC1 [Compound 34] | 50 to 500 nM |
| C=CC(=O)Nc1cc(Nc2cc(N3OCC[C@@H]3c3ccc(Cl)c(C(F)(F)F)c3)ncn2)c(OC)cc1N1CCC(N(C)C)CC1 [Compound 35] | 50 to 500 nM |
| C=CC(=O)Nc1cc(Nc2cc(N3OCC[C@@H]3c3ccc(F)c(C(F)(F)F)c3)ncn2)c(OC)cc1N(C)CCN(C)C [Compound 36] | < 50 nM |
| C=CC(=O)Nc1cc(Nc2cc(N3OCC[C@@H]3c3ccc(F)c(C(F)(F)F)c3)ncn2)c(OC)cc1N1CCN(CC)CC1 [Compound 38] | < 50 nM |
| C=CC(=O)Nc1cc(Nc2cc(N3OCC[C@@H]3c3ccc(F)c(C(F)(F)F)c3)ncn2)c(OC)cc1N1CCC(N(C)C)CC1 [Compound 39] | < 50 nM |
| C=CC(=O)Nc1cc(Nc2cc(N3OCC[C@@H]3c3ccc(F)c(C(F)(F)F)c3)ncn2)c(OC)cc1N1CCCN(C)CC1 [Compound 40] | < 50 nM |
| C=CC(=O)Nc1cc(Nc2cc(N3OCC[C@@H]3c3ccc(F)c(C(F)(F)F)c3)ncn2)c(OC)cc1N1CCN(CC2CC2)CC1 [Compound 42] | < 50 nM |
| C=CC(=O)Nc1cc(Nc2cc(N3OCC[C@@H]3c3ccc(F)c(C(F)(F)F)c3)ncn2)c(OC)cc1N1CC[C@@H](N(C)C)C1 [Compound 43] | < 50 nM |
| C=CC(=O)Nc1cc(Nc2cc(N3OCC[C@@H]3c3ccc(F)c(C(F)(F)F)c3)ncn2)c(OC)cc1N1CCN(C)[C@@H](C)C1 [Compound 44] | < 50 nM |
| C=CC(=O)Nc1cc(Nc2cc(N3OCC[C@@H]3c3ccc(F)c(C(F)(F)F)c3)ncn2)c(OC)cc1N1C[C@H]2C[C@@H]1CO2 [Compound 45] | 50 to 500 nM |
| C=CC(=O)Nc1cc(Nc2cc(N3OCC[C@@H]3c3ccc(F)c(C(F)(F)F)c3)ncn2)c(OC)cc1N1CCN(C(C)=O)CC1 [Compound 46] | < 50 nM |
| C=CC(=O)Nc1cc(Nc2cc(N3OCC[C@@H]3c3ccc(F)c(C(F)(F)F)c3)ncn2)c(OC)cc1N1CCC(N(CC)CC)CC1 [Compound 47] | < 50 nM |
| C=CC(=O)Nc1cc(Nc2cc(N3OCC[C@@H]3c3ccc(F)c(C(F)(F)F)c3)ncn2)c(OC)cc1N1CCC(N2CCC2)CC1 [Compound 48] | < 50 nM |
| C=CC(=O)Nc1cc(Nc2cc(N3OCC[C@@H]3c3ccc(F)c(C(F)(F)F)c3)ncn2)c(OC)cc1N1CCC(N2CCN(C3CC3)CC2)CC1 [Compound 49] | < 50 nM |
| C=CC(=O)Nc1cc(Nc2cc(N3OCCC3c3cc(Cl)cc(C(F)(F)F)c3)ncn2)c(OC)cc1N1CCN(CC)CC1 (stereo not shown) [Compound 50] | 50 to 500 nM |
| C=CC(=O)Nc1cc(Nc2cc(N3OCCC3c3cc(Cl)cc(C(F)(F)F)c3)ncn2)c(OC)cc1N1CCC(N2CCN(C3CC3)CC2)CC1 (stereo not shown) [Compound 51] | 50 to 500 nM |
| C=CC(=O)Nc1cc(Nc2cc(N3OCC[C@@H]3c3ccc(F)c(C(F)(F)F)c3)ncn2)c(OC)cc1N1C[C@@H]2C[C@H]1CO2 [Compound 54] | 50 to 500 nM |
| C=CC(=O)Nc1cc(Nc2cc(N3OCC[C@@H]3c3ccc(F)c(C(F)(F)F)c3)ncn2)c(OC)cc1N1CCO[C@@H](C)C1 [Compound 56] | 50 to 500 nM |
| C=CC(=O)Nc1cc(Nc2cc(N3OCC[C@@H]3c3ccc(F)c(C(F)(F)F)c3)ncn2)c(OC)cc1N1CCO[C@H](C)C1 [Compound 57] | 50 to 500 nM |
| C=CC(=O)Nc1cc(Nc2cc(N3OCC[C@@H]3c3ccc(F)c(C(F)(F)F)c3)ncn2)c(OC)cc1N1CCC(N2CCO[C@H](C)C2)CC1 [Compound 59] | < 50 nM |
| C=CC(=O)Nc1cc(Nc2cc(N3OCC[C@@H]3c3ccc(F)c(C(F)(F)F)c3)ncn2)c(OC)cc1N1CCOCC1 [Compound 63] | 50 to 500 nM |
| C=CC(=O)Nc1cc(Nc2cc(N3OCC[C@@H]3c3ccc(F)c(C(F)(F)F)c3)ncn2)c(OC)cc1N1CCC(N2CCOCC2)CC1 [Compound 64] | < 50 nM |
| C=CC(=O)Nc1cc(Nc2cc(N3OCC[C@@H]3c3cccc(C(F)(F)F)c3F)ncn2)c(OC)cc1N1CCOCC1 [Compound 65] | 50 to 500 nM |
